One may read the IC50 as the point on the concentration scale where inhibition reaches its midpoint. High values mean weaker potency in that assay, low ones greater potency in that assay. What is called melting point is the temperature, or range, at which the solid turns liquid.

Here are results for 16 compounds from patent US6756373B1, “Pharmaceutically active compounds” (Pfizer Inc., priority 1999, dated 2004).

One data set has as its target cGMP PDE5 (UniProt O76074). Put plainly: Phosphodiesterase (PDE) inhibitory activity: in vitro inhibition of cGMP PDE5 (batch method or scintillation proximity assay). Conditions: in vitro activity as inhibitors of cGMP PDE5. (In general: In a scintillation proximity assay essentially only radioactivity close to the scintillant gives light.)

Experimental for cGMP PDE5: Phosphodiesterases 7-11 were generated from full length human recombinant clones transfected into SF9 cells.
In summary, the effect of PDE inhibitors was investigated by assaying a fixed amount of enzyme in the presence of varying inhibitor concentrations and low substrate, (cGMP or cAMP in a 3:1 ratio unlabelled to [^3H]-labeled at a conc ˜1/3 Km) such that IC50≅Ki. The final assay volume was made up to 100 μl with assay buffer [20 mM Tris-HCl pH 7.4, 5 mM MgCl2, 1 mg/ml bovine serum albumin].

Regarding `CCOc1ncc(C(C)=O)cc1-c1nc2c(-c3ccc(N(C)C)nc3)n(C)nc2c(=O)[nH]1` [Example 59, 5-(5-Acetyl-2-ethoxy-3-pyridinyl)-3-[6-(dimethylamino)-3-pyridinyl]-2-methyl-2,6-dihydro-7H-pyrazolo[4,3-d]pyrimidin-7-one], on cGMP PDE5, half-maximal inhibition (IC50) was put at 1.41 nM.

In turn, `CCCOc1ncc(I)cc1-c1nc2c(CC)nn(CC(=O)OC(C)(C)C)c2c(=O)[nH]1` [Example 64, tert-butyl [3-ethyl-5-(5-iodo-2-propoxy-3-pyridinyl)-7-oxo-6,7-dihydro-1H-pyrazolo[4,3-d]pyrimidin-1-yl]acetate] came in with an IC50 at cGMP PDE5 of 7 nM.

`CCCOc1ncc(I)cc1-c1nc2c(CC)n(CC(=O)OC(C)(C)C)nc2c(=O)[nH]1` [Example 65, tert-butyl [3-ethyl-5-(5-iodo-2-propoxy-3-pyridinyl)-7-oxo-6,7-dihydro-2H-pyrazolo[4,3-d]-pyrimidin-2-yl]acetate] came in with an IC50 against cGMP PDE5 of 4 nM.

On to `CCCOc1ncc(-c2nnn[nH]2)cc1-c1nc2c(CCC)nn(C)c2c(=O)[nH]1` [Example 71, 1-Methyl-5-[2-propoxy-5-(1H-tetrazol-5-yl)-3-pyridinyl]-3-propyl-1,6-dihydro-7H-pyrazolo[4,3-d]pyrimidin-7-one], for which, on cGMP PDE5, half-maximal inhibition (IC50) was put at 1 nM.

In turn, `CCCOc1ncc(C#CC(=O)OCC)cc1-c1nc2c(CCC)nn(C)c2c(=O)[nH]1` [Example 72] yielded an IC50 on cGMP PDE5 of 0.3 nM.

In the case of `CCCOc1ncc(-c2cc(O)no2)cc1-c1nc2c(CCC)nn(C)c2c(=O)[nH]1` [Example 73, 5-[5-(3-Hydroxy-5-isoxazolyl)-2-propoxy-3-pyridinyl]-1-methyl-3-propyl-1,6-dihydro-7H-pyrazolo[4,3-d]pyrimidin-7-one], the melting point lay within 239 to 241 °C. At cGMP PDE5, this compound came in with an IC50 of 5 nM.

In the case of `CCCOc1ncc(NCC(=O)O)cc1-c1nc2c(CCC)nn(C)c2c(=O)[nH]1` [Example 75, {[5-(1-Methyl-7-oxo-3-propyl-6,7-dihydro-1H-pyrazolo[4,3-d]pyrimidin-5-yl)-6-propoxy-3-pyridinyl]amino}acetic Acid], the IC50 on cGMP PDE5 is 5 nM.

Compound `CCCOc1ncc(N(S(C)(=O)=O)S(C)(=O)=O)cc1-c1nc2c(CCC)nn(C)c2c(=O)[nH]1` [Example 76, N-[5-(1-Methyl-7-oxo-3-propyl-6,7-dihydro-1H-pyrazolo[4,3-d]pyrimidin-5-yl)-6-propoxy-3-pyridinyl]-N-(methylsulfonyl)methanesulfonamide] returned an IC50 on cGMP PDE5 of 3 nM.

The compound `CCCOc1ncc(NS(C)(=O)=O)cc1-c1nc2c(CCC)nn(C)c2c(=O)[nH]1` [Example 77, N-[5-(1-Methyl-7-oxo-3-propyl-6,7-dihydro-1H-pyrazolo[4,3-d]pyrimidin-5-yl)-6-propoxy-3-pyridinyl]methanesulfonamide] showed an IC50 at cGMP PDE5 of 0.9 nM.

`CCCOc1ncc(NC(=O)CC(=O)OC)cc1-c1nc2c(CCC)nn(C)c2c(=O)[nH]1` [Example 78, Methyl 3-{[5-(1-methyl-7-oxo-3-propyl-6,7-dihydro-1H-pyrazolo[4,3-d]-pyrimidin-5-yl)-6-propoxy-3-pyridinyl]amino}-3-oxopropanoate] showed an IC50 against cGMP PDE5 of 0.3 nM.

Take `CCCOc1ncc(NC(=O)CC(=O)O)cc1-c1nc2c(CCC)nn(C)c2c(=O)[nH]1` [Example 79, N-[5-(1-Methyl-7-oxo-3-propyl-6,7-dihydro-1H-pyrazolo[4,3-d]pyrimidin-5-yl)-6-propoxy-3-pyridinyl]-3-oxo-β-alanine]: the melting point lay within 261 to 262 °C. Besides, the IC50 against cGMP PDE5 was 1.6 nM.

On to `CCCOc1ncc(NS(=O)(=O)CC(=O)O)cc1-c1nc2c(CCC)nn(C)c2c(=O)[nH]1` [Example 80, ({[5-(1-Methyl-7-oxo-3-propyl-6,7-dihydro-1H-pyrazolo[4,3-d]pyrimidin-5-yl)-6-propoxy-3-pyridinyl]amino}sulfonyl)acetic Acid], for which the melting point is 267 to 270 °C. Further, the midpoint of inhibition against cGMP PDE5, the IC50, lay at 0.9 nM.

Take `CCCOc1ncc(N2CCN(S(=O)(=O)c3ccc(C)cc3)CC2)cc1-c1nc2c(CCC)nn(C)c2c(=O)[nH]1` [Example 81, 1-Methyl-5-(5-{4-[(4-methylphenyl)sulfonyl]-1-piperazinyl}-2-propoxy-3-pyridinyl)-3-propyl-1,6-dihydro-7H-pyrazolo[4,3-d]pyrimidin-7-one]: at cGMP PDE5, the half-maximal inhibitory concentration (IC50) was 2 nM.

Compound `CCCOc1ncc(NCC(=O)OC)cc1-c1nc2c(CCC)nn(C)c2c(=O)[nH]1` [Example 82, Methyl {[5-(1-Methyl-7-oxo-3-propyl-6,7-dihydro-1H-pyrazolo[4,3-d]pyrimidin-5-yl)-6-propoxy-3-pyridinyl]amino}acetate] gave a melting point of 175 °C. It took 4 nM to reach half-maximal inhibition against cGMP PDE5 (IC50).

`CCCOc1ncc(NC(C)C(=O)OC)cc1-c1nc2c(CCC)nn(C)c2c(=O)[nH]1` (stereo not drawn) [Example 83, Methyl 2-{[5-(1-Methyl-7-oxo-3-propyl-6,7-dihydro-1H-pyrazolo[4,3-d]-pyrimidin-5-yl)-6-propoxy-3-pyridinyl]amino}propanoate] gave a melting point of 185 to 187 °C. Moreover, the half-inhibitory concentration (IC50) at cGMP PDE5 was 2 nM.

With `CCCOc1ncc(N[C@@H](C)C(=O)O)cc1-c1nc2c(CCC)nn(C)c2c(=O)[nH]1` [Example 84, N-[5-(1-Methyl-7-oxo-3-propyl-6,7-dihydro-1H-pyrazolo[4,3-d]pyrimidin-5-yl)-6-propoxy-3-pyridinyl]alanine], the IC50 against cGMP PDE5 worked out at 7.5 nM.
